Source: patent US20250230193A1, “CYCLIC COMPOUND HAVING SELECTIVE KRAS INHIBITORY EFFECT ON HRAS AND NRAS” (CHUGAI SEIYAKU KABUSHIKI KAISHA, priority 2022, published 2025)
Where a SMILES comes first, the peptide text is derived from it. Bridges are numbered along the chain shown (N, C = ends). [ ]: non-standard residue; d: D form. The star is where a group is joined. hPhe(3-Cl-4-CF3) = N[C@@H](CCc1ccc(C(F)(F)F)c(Cl)c1)C(=O)O; NEtPhe(4-Me) = CCN[C@@H](Cc1ccc(C)cc1)C(=O)O; NMeGly(cPent) = CN[C@H](C(=O)O)C1CCCC1; NMeD = CN[C@@H](CC(=O)O)C(=O)O; NMeL = CN[C@@H](CC(C)C)C(=O)O; Morpholide = C1CN(*)CCO1; Ac5c = NC1(C(=O)O)CCCC1; NEtG = CCNCC(=O)O; Sar = CNCC(=O)O

Key:
[1] = biological target: GDP-bound HRAS wild-type protein (Homo sapiens, UniProt P01112); experiment: Binding to HRAS by surface plasmon resonance (SPR), Single Cycle Kinetics
[2] = biological target: GDP-bound NRAS wild-type protein (Homo sapiens, UniProt P01111); experiment: Binding to NRAS by surface plasmon resonance (SPR), Single Cycle Kinetics
[3] = GDP-bound HRAS wild-type vs GDP-bound KRAS wild-type, SPR
[4] = GDP-bound NRAS wild-type vs GDP-bound KRAS wild-type, SPR

Chain of GDP-bound NRAS wild-type protein (P01111 whole entry): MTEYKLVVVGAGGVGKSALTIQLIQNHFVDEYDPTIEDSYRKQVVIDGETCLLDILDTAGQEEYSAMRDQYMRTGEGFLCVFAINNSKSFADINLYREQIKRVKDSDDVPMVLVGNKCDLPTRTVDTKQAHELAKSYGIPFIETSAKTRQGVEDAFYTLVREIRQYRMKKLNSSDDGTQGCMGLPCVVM
Chain of GDP-bound HRAS wild-type protein (P01112 whole entry): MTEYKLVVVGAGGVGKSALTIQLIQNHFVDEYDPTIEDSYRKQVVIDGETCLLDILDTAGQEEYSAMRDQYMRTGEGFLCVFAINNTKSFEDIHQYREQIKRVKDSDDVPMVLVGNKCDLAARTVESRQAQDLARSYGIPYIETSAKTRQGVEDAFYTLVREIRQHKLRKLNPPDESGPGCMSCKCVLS

With `CCCOC[C@H]1C(=O)N[C@@H]([C@@H](C)CC)C(=O)N(C)CC(=O)N(C)[C@H]2C/C=C\CCN(C2=O)[C@@H](Cc2ccc(C)cc2)C(=O)N(C)CC(=O)N[C@@H](CCc2ccc(C(F)(F)F)c(Cl)c2)C(=O)N2C[C@@H](C)C[C@H]2C(=O)NC2(CC(C)(C)C2)C(=O)N(C)[C@@H](C2CCCC2)C(=O)N(C)[C@H](C(=O)N(C)CC)CC(=O)N1C` [PP2467] the “HRAS/KRAS (ratio of KD value with respect to HRAS to KD value with respect to KRAS)” value ([1]; SPR, GDP-bound HRAS wild-type vs GDP-bound KRAS wild-type) was “B (a compound having 3 or more and less than 10 is denoted as B)” and the “NRAS/KRAS (ratio of KD value with respect to NRAS to KD value with respect to KRAS)” value ([2]; SPR, GDP-bound NRAS wild-type vs GDP-bound KRAS wild-type) was “A (a compound having 10 or more and less than 20 is denoted as A)”.
`CCO[C@@H]1C[C@H]2C(=O)NC3(CCC3)C(=O)N(C)[C@@H](C3CCCC3)C(=O)N(C)[C@H](C(=O)N(C)CCOC)CC(=O)N(C)[C@@H](CC(C)C)C(=O)N[C@@H]([C@@H](C)CC)C(=O)N(C)CC(=O)N(C)[C@H]3C/C=C\CCN(C3=O)[C@@H](Cc3ccc(C(F)(F)F)cc3)C(=O)N(C)CC(=O)N[C@@H](CCc3cc(F)c(C(F)(F)F)c(F)c3)C(=O)N2C1` [PP1317] was tested, and the “HRAS/KRAS (ratio of KD value for GDP-bound HRAS wild-type protein to KD value for KRAS)” value ([1]; SPR, KD ratio class) was “B (a compound having 3 or more and less than 10 is denoted as B)” and the “NRAS/KRAS (ratio of KD value for GDP-bound NRAS wild-type protein to KD value for KRAS)” value ([2]; SPR, KD ratio class) was “A (a compound having 10 or more and less than 20 is denoted as A)”.
In the case of `CCO[C@@H]1C[C@H]2C(=O)NC3(CC(C)(C)C3)C(=O)N(C)[C@@H](C3CCCC3)C(=O)N(C)[C@H](C(=O)N(C)C)CC(=O)N(C)[C@@H](CC3CC3)C(=O)N[C@@H]([C@@H](C)CC)C(=O)N(C)CC(=O)N(C)[C@H]3C/C=C\CCN(C3=O)[C@@H](Cc3ccc(C(F)(F)F)cc3)C(=O)N(C)CC(=O)N[C@@H](CCc3ccc(C(F)(F)F)c(Cl)c3)C(=O)N2C1` [PP1749], the “HRAS/KRAS (ratio of KD value for HRAS to KD value for KRAS)” value [1, 3] is reported as “A (a compound having 10 or more and less than 20 is denoted as A)” and the “NRAS/KRAS (ratio of KD value for NRAS to KD value for KRAS)” value [2, 4] is reported as “A (a compound having 10 or more and less than 20 is denoted as A)”.
`CCO[C@@H]1C[C@H]2C(=O)NC3(CCC3)C(=O)N(C)[C@@H](C(CC)CC)C(=O)N(C)[C@H](C(=O)N3CCCC3)CC(=O)N(C)[C@H]3CCCC/C=C/c4ccc(cc4)C[C@@H](C(=O)N(C)CC(=O)N[C@@H](CCc4ccc(Cl)c(Cl)c4)C(=O)N2C1)N1CC/C=C\C[C@@H](C1=O)N(C)C(=O)CN(C)C(=O)[C@H]([C@@H](C)CC)NC3=O` [PP3047, (1S,7S,11R,13S,19S,22S,26S,29S,35S,37Z,47E)-7-[2-(3,4-dichlorophenyl)ethyl]-11-ethoxy-19-(1-ethylpropyl)-3,18,21,25,31,34-hexamethyl-29-[(1S)-1-methylpropyl]-22-(pyrrolidine-1-carbonyl)spiro[3,6,9,15,18,21,25,28,31,34,41-undecazapentacyclo[24.15.11.2^43,46.1^35,41.0^9,13]pentapentaconta-37,43(54),44,46(53),47-pentaene-16,1′-cyclobutane]-2,5,8,14,17,20,24,27,30,33,55-undecone] was tested, and the “HRAS/KRAS (ratio of KD value with respect to GDP-bound HRAS wild-type protein to KD value with respect to KRAS)” value ([1]; KD ratio HRAS/KRAS, SPR, GDP-bound wild-type proteins) was “A (a compound having 10 or more and less than 20 is denoted as A)” and the “NRAS/KRAS (ratio of KD value with respect to GDP-bound NRAS wild-type protein to KD value with respect to KRAS)” value ([2]; KD ratio NRAS/KRAS, SPR, GDP-bound wild-type proteins) was “AA (a compound having 20 or more is denoted as AA)”.
With `CCC[C@H]1C(=O)N[C@@H](CC(C)C)C(=O)N(CC)CC(=O)N(C)[C@H]2C/C=C\CCN(C2=O)[C@@H](Cc2ccc(C)cc2)C(=O)N(C)CC(=O)N[C@@H](CCc2ccc(C(F)(F)F)c(Cl)c2)C(=O)N2C[C@H](OCC)C[C@H]2C(=O)NC2(CCC2)C(=O)N(C)[C@@H](C2CCCC2)C(=O)N(C)[C@H](C(=O)N(C)C)CC(=O)N1C` [PP2545] the “HRAS/KRAS (ratio of KD value with respect to GDP-bound HRAS wild-type protein to KD value with respect to KRAS)” value ([1]; KD ratio HRAS/KRAS, class symbols) was “A (a compound having 10 or more and less than 20 is denoted as A)” and the “NRAS/KRAS (ratio of KD value with respect to GDP-bound NRAS wild-type protein to KD value with respect to KRAS)” value ([2]; KD ratio NRAS/KRAS, class symbols) was “A (a compound having 10 or more and less than 20 is denoted as A)”.
In the case of `CCC[C@H]1C(=O)N[C@@H]([C@@H](C)CC)C(=O)N(C)CC(=O)N(C)[C@H]2C/C=C\CCN(C2=O)[C@@H](Cc2ccc(C)cc2)C(=O)N(C)CC(=O)N[C@@H](CCc2ccc(C(F)(F)F)c(OC)c2)C(=O)N2C[C@H](C)C[C@H]2C(=O)NC2(CCC2)C(=O)N(C)[C@@H](C2CCCC2)C(=O)N(C)[C@H](C(=O)N(C)C)CC(=O)N1C` [PP1859], the “HRAS/KRAS (ratio of KD value for HRAS to KD value for KRAS)” value [1, 3] is reported as “A (a compound having 10 or more and less than 20 is denoted as A)” and the “NRAS/KRAS (ratio of KD value for NRAS to KD value for KRAS)” value [2, 4] is reported as “A (a compound having 10 or more and less than 20 is denoted as A)”.
With `CC[C@H](C)[C@@H]1NC(=O)[C@H](CC(C)C)N(C)C(=O)C[C@@H](C(=O)N2CCOCC2)N(C)C(=O)[C@H](C2CCCC2)N(C)C(=O)C2(CCCC2)NC(=O)[C@@H]2CCCN2C(=O)[C@H](CCc2ccc(C(F)(F)F)c(Cl)c2)NC(=O)CN(CC)C(=O)[C@H](Cc2ccc(C)cc2)N(CC)C(=O)CN(C)C(=O)CN(C)C1=O` [PP0028] ([NMeL]I[Sar][Sar][NEtPhe(4-Me)][NEtG][hPhe(3-Cl-4-CF3)]P[Ac5c][NMeGly(cPent)][NMeD]-Morpholide; lactam N-11) the “HRAS/KRAS (ratio of KD for GDP-bound HRAS wild-type to KD for KRAS)” value ([1]; KD ratio HRAS/KRAS, SPR) was “C (A compound having a KD ratio of 0.1 or more and less than 3 is denoted as C)” and the “NRAS/KRAS (ratio of KD for GDP-bound NRAS wild-type to KD for KRAS)” value ([2]; KD ratio NRAS/KRAS, SPR) was “C (A compound having a KD ratio of 0.1 or more and less than 3 is denoted as C)”.
